According to US10913709B2, “STAT3 inhibitor formulation” (priority 2017, dated 2021):

How the values were obtained:
[1] = Aqueous solubility in the presence of various bases (Example 1); type: physicochemical
Source text: (§1) The resulting mixtures were examined for both solubility and stability with the results being analyzed high-performance liquid chromatography (HPLC) with UV and mass spectroscopy detection.

[2] = Observation for toxicity and mortality in the PK study; type: in vivo
Procedure: Mice were weighed within 72 hours of receipt and again on Study Day −1. Mice were observed once daily prior to day 0, and at least twice daily beginning on day 0 for 24 hours post-dose for morbidity and moribundity.

[3] = Body weight and toxicity during the chemoprevention study; type: in vivo, female MMTV/Neu mice; conditions: gavage 5 times/week, 500, 250, and 100 mg/kg BW/day, throughout the experiment
[4] = test system: Ki67 expression; assay: Ki67 expression in normal mammary gland, immunohistochemical analysis; conditions: two weeks of treatment
Procedure: Ki67 expression was assessed by immunohistochemical analysis of the normal ductal epithelium. Stained sections were scanned and quantitated using automated image analysis software.

[5] = Stability in acetonitrile extract (post sample preparation); type: physicochemical; conditions: 6 days
Procedure: In particular, once the centrifugation was performed on the blood samples to provide the plasma samples for analysis, extraction into acetonitrile was done as quickly as possible (e.g., <1 hour).

[6] = Plasma stability in mouse plasma; type: in vitro ADME
Procedure: An hour-by-hour analysis was then conducted, showing a marked decrease at ambient conditions (see Table 4). […] It should be noted that the time measurement for ambient is listed in hours (Table 4) compared with the time for the −20° C., which was measured in days (Table 5).

[7] = test system: DMBA-induced mammary cancer; assay: Chemoprevention study of DMBA-induced mammary cancer
Source text: The negative control group received vehicle (purified water) only. In order to accelerate tumor formation, the mice were also given 7,12-dimethylbenz[a]anthracene (DMBA) by gavage 1 time/week for 4 weeks beginning at 57 days of age. The study was terminated 4 months after DMBA exposure. During the treatment period, the body weights of the mice and the appearance of palpable mammary tumors were monitored on a weekly and twice-weekly basis, respectively.

[8] = cited from earlier work
[9] = Stability in water in the presence of various bases, HPLC with UV and MS detection (Example 1); type: physicochemical
Source text: as §1

## Cc1ccc(S(=O)(=O)OCC(=O)Nc2ccc(C(=O)O)c(O)c2)cc1 [Compound 1]
[1]; water
  solubility in water: highly soluble in water
[2]; groups A-H: IV 50 mg/kg, PO 500, 250, 125 mg/kg, observed 24 hours post-dose
  signs of toxicity post-dose: None of the mice in groups A-H demonstrated signs of toxicity
[2]; oral or IV administration, any of the doses administered
  mortality: no mortality
[3]
  weight loss or toxicity: No weight loss or toxicity was observed
[4]; 250 mg/kg BW/day
  inhibition of Ki67: 85%
[4]; 500 mg/kg BW/day
  inhibition of Ki67: 83%
[5]
  stability in an acetonitrile extract: little/no degradation
[6]; ambient conditions, 0 hours
  recovery at 0 h: 88.6%
[6]; ambient conditions, 1 hour
  recovery at 1 h: 61.2%
[6]; ambient conditions, 2 hours
  recovery at 2 h: 52.6%
[6]; ambient conditions, 3 hours
  recovery at 3 h: 28.7%
[6]; ambient conditions, 5 hours
  recovery at 5 h: 21.3%
[6]; ambient conditions, 6 hours
  recovery at 6 h: 15.8%
[6]; samples assessed daily, no free acid observed after 1 day
  plasma stability, daily assessment: stability was short
[6]; −20° C., 0 days
  recovery at 0 days: 94.5%
[6]; −20° C., 1 day
  recovery at 1 days: 76.6%
[6]; −20° C., 2 days
  recovery at 2 days: 65.7%
[6]; −20° C., 3 days
  recovery at 3 days: 58%
[6]; −20° C., 6 days
  recovery at 6 days: 46.6%
[7]; 500 mg/kg BW/day by gavage
  effect in preventing breast cancer: greatest effect
[7]; all doses tested (500, 250, and 100 mg/kg BW/day by gavage)
  onset of DMBA-induced breast cancer: able to delay the onset
[7]; gavage 5 times/week, 500, 250, and 100 mg/kg BW/day, DMBA-accelerated, 4 months
  incidence, multiplicity, and weights of mammary tumors compared to the vehicle-only control: dose-dependent decrease

## Cc1ccc(S(=O)(=O)OCC(=O)Nc2ccc(C(=O)O)c(O)c2)cc1 [NSC-74859]
[1]; water with 1.1 molar equivalents of TRIZMA base, aqueous buffer, thermodynamic from solid, with 1.1 molar equivalents TRIZMA (2-amino-2-(hydroxymethyl)-1,3-propanediol), pH 7 water
  solubility: ~60 mg/mL
[1]; with 1.1 molar equivalents of base in water, all bases examined (LiOH, NaOH, K2CO3, NaHCO3, TRIZMA)
  aqueous solubility: good aqueous solubility
[8]
  solubility in water and ethanol: poorly soluble in water and ethanol
[9]; in stronger bases, such as sodium hydroxide, in water
  degradation (loss of the tosylate group): Degradation was much more pronounced
[9]; with TRIZMA, in water at room temperature, initial analysis
  time the product remained stable: ~8 h
